Structures can show the parent of a compound that is named as a salt.
| Compound | melting point |
| --- | --- |
| CC(NC(=O)c1cccnc1Oc1ccc(F)cc1)c1ccc(Br)cc1 (centres unmarked) [Example 82, N-[1-(4-Bromo-phenyl)-ethyl]-2-(4-fluoro-phenoxy)-nicotinamide] | 120 to 122 °C |
| O=C1Cc2cc(CNC(=O)c3cccnc3Oc3cccc([N+](=O)[O-])c3)ccc2N1 [Example 106, 2-(3-Nitro-phenoxy)-N-(2-oxo-2,3-dihydro-1H-indol-5-ylmethyl)-nicotinamide] | 190 to 192 °C |
| CC(C)(O)C1CCC(CNC(=O)c2cccnc2Oc2ccc(F)cc2)CC1 (centres unmarked) [Example 245, 2-(4-Fluoro-phenoxy)-N-[4-(1-hydroxy-1-methyl-ethyl)-cyclohexylmethyl]-nicotinamide] | 78 to 80 °C |
| CC(=O)c1cc(Cl)cc(Oc2ncccc2C(=O)NCc2ccc(C(C)(C)O)cc2)c1 [Example 305, 2-(3-Acetyl-5-chloro-phenoxy)-N-(4-(1-Hydroxy-1-methyl-ethyl)-benzyl)-nicotinamide] | 110 to 112 °C |
| CC(C)(O)c1ccc(CNC(=O)c2cccnc2Oc2ccc(F)c(C#N)c2)c(Cl)c1 [Example 244, N-[2-Chloro-4-(1-hydroxy-1-methyl-ethyl)-benzyl]-2-(3-cyano-4-fluoro-phenoxy)-nicotinamide] | 151 to 153 °C |
| O=C(O)c1cc2cc(CNC(=O)c3cccnc3Oc3ccc(F)cc3)ccc2[nH]1 [Example 165, 5-({[2-(4-Fluoro-phenoxy)-pyridine-3-carbonyl]-amino}-methyl)-1H-indole-2-carboxylic acid] | 236 to 238 °C |
| O=C(NCc1ccc(N2CCOCC2)cc1)c1cccnc1Oc1ccc(F)cc1 [Example 91, 2-(4-Fluoro-phenoxy)-N-(4-morpholin-4-yl-benzyl)-nicotinamide] | 163 to 165 °C |
| CC(=O)c1cc(Oc2ncccc2C(=O)NC[C@H]2CC[C@H](C(C)(C)O)CC2)ccc1Cl [Example 309, 2-(3-Acetyl-4-chloro-phenoxy)-N-(trans-4-(1-hydroxy-1-methyl-ethyl)-cyclohexylmethyl)-nicotinamide] | 106 to 108 °C |
| COc1ccc(CCC(=O)c2cccnc2Oc2ccc(F)cc2)cc1 [Example 249, 1-[2-(4-Fluorophenoxy)-3-pyridinyl]-3-(4-methoxyphenyl)-1-propanone] | 73 to 74 °C |
| O=C(NCc1ccc(C2(O)CCC2)cc1)c1cccnc1Oc1ccc(F)c(F)c1 [Example 232, 2-(3,4-Difluoro-phenoxy)-N-[4-(1-hydroxy-cyclobutyl)-benzyl]-nicotinamide] | 74 to 76 °C |
| CC(C)(O)c1ccc(CNC(=O)c2cccnc2Oc2ccc(F)cc2)c(F)c1 [Example 328, N-[2-Fluoro-4-(1-hydroxy-1-methyl-ethyl)-benzyl]-2-(4-fluoro-phenoxy)-nicotinamide] | 93 to 94 °C |
| CC(=O)c1cccc(Oc2ncccc2C(=O)NCc2ccc(S(N)(=O)=O)cc2)c1 [Example 224, 2-(3-Acetyl-phenoxy)-N-(4-sulfamoyl-benzyl)-nicotinamide] | 162 to 164 °C |
| O=C(NCc1ccc(Cl)s1)c1cccnc1Oc1ccc(F)cc1 [Example 61, N-(5-Chloro-thiophen-2-ylmethyl)-2-(4-fluoro-phenoxy)-nicotinamide] | 91 to 93 °C |
| CC(C)(O)c1cc(Cl)c(CNC(=O)c2cccnc2Oc2cncc(Cl)c2)s1 [Example 60, N-[3-Chloro-5-(1-hydroxy-1-methyl-ethyl)-thiophen-2-ylmethyl]-2-(5-chloro-pyridin-3-yloxy)-nicotinamide] | 72 to 74 °C |
| NS(=O)(=O)c1ccc(CNC(=O)c2cccnc2Oc2ccc(F)cc2)cc1 [Example 193, 2-(4-Fluoro-phenoxy)-N-(4-sulfamoyl-benzyl)-nicotinamide] | 222 to 223 °C |
| O=C(NCc1ccc(N2CC(O)C2)cc1)c1cccnc1Oc1ccc(F)cc1 [Example 88, 2-(4-Fluoro-phenoxy)-N-[4-(3-hydroxy-azetidin-1-yl)-benzyl]-nicotinamide] | 157 to 159 °C |
| CC(C)(O)c1ccc(CNC(=O)c2cccnc2Oc2ccc(F)cc2F)cc1 [Example 230, 2-(2,4-Difluoro-phenoxy)-N-[4-(1-hydroxy-1-methyl-ethyl)-benzyl]-nicotinamide] | 92 to 94 °C |
| CCc1n[nH]c2ccc(C(NC(=O)c3cccnc3Oc3cccc(C#N)c3)C3CCCCC3)cc12 (centres unmarked) [Example 117, 2-(3-Cyano-phenoxy)-N-(-cyclohexyl-3-ethyl-1H-indazol-5-ylmethyl)-nicotinamide] | 56 to 58 °C |
| Cc1noc2c(Oc3ncccc3C(=O)NCC3CCC(C(C)(C)O)CC3)cccc12 (centres unmarked) [Example 317, N-(4-(1-Hydroxy-1-methyl-ethyl)-cyclohexylmethyl)-2-(3-methyl-benzo(d)-isoxazol-7-yloxy)-nicotinamide] | 170 to 172 °C |
| Cc1cc(CNC(=O)c2cccnc2Oc2ccc(F)cc2)cc(C)c1O [Example 78, 2-(4-Fluoro-phenoxy)-N-(4-hydroxy-3,5-dimethyl-benzyl)-nicotinamide] | 142 to 144 °C |
| CC(C)(O)c1ccc(CNC(=O)c2cccnc2Oc2cccc(F)c2)cc1 [Example 202, 2-(3-Fluoro-phenoxy)-N-[4-(1-hydroxy-1-methyl-ethyl)-benzyl]-nicotinamide] | 106 to 108 °C |
| O=C(NCc1ccc(N2CCCCC2)cc1)c1cccnc1Oc1ccc(F)cc1 [Example 90, 2-(4-Fluoro-phenoxy)-N-(4-piperidin-1-yl-benzyl)-nicotinamide] | 118 to 119 °C |

Continued, values first:

| melting point | Compound |
| --- | --- |
| 122 to 124 °C | O=C(NCc1ccc(C(F)(F)F)s1)c1cccnc1Oc1cccnc1 [Example 30, 2-(Pyridin-3-yloxy)-N-(5-trifluoromethyl-thiophen-2-ylmethyl)-nicotinamide] |
| 109 to 111 °C | O=C1Cc2cc(CNC(=O)c3cccnc3Oc3cccnc3)ccc2N1 [Example 33, N-(2-Oxo-2,3-dihydro-1H-indol-5-ylmethyl)-2-(pyridin-3-yloxy)-nicotinamide] |
| 102 to 104 °C | CC(=O)c1cccc(Oc2ncccc2C(=O)NCc2ccc(C(C)(C)O)cc2Cl)c1 [Example 235, 2-(3-Acetyl-phenoxy)-N-[2-chloro-4-(1-hydroxy-1-methyl-ethyl)-benzyl]-nicotinamide] |
| 45 to 46 °C | O=C(CCc1ccccc1)c1cccnc1Oc1cccnc1 [Example 257, 3-Phenyl-1-[2-(pyridin-3-yloxy)-pyridin-3-yl]-propan-1-one] |
| 139 to 141 °C | CC(C)(O)c1ccc(CNC(=O)c2cccnc2Oc2cccnc2)cc1Cl [Example 38, N-[3-Chloro-4-(1-hydroxy-1-methyl-ethyl)-benzyl]-2-(pyridin-3-yloxy)-nicotinamide] |
| 99 to 101 °C | O=C(NCc1ccc(F)s1)c1cccnc1Oc1cccnc1 [Example 32, N-(5-Fluoro-thiophen-2-ylmethyl)-2-(pyridin-3-yloxy)-nicotinamide] |
| 125 to 127 °C | O=C(NCc1ccc(Cl)s1)c1cccnc1Oc1cncc(Cl)c1 [Example 51, 2-(5-Chloro-pyridin-3-yloxy)-N-(5-chloro-thiophen-2-ylmethyl)-nicotinamide] |
| 110 to 112 °C | CC(=O)c1ccc(CC(=O)Nc2cccnc2Oc2cccnc2)cc1 [Example 186, 2-(4-Acetyl-phenyl)-N-[2-(pyridin-3-yloxy)-pyridin-3-yl]-acetamide] |
| 81 to 83 °C | Cc1ccc(CNC(=O)c2cccnc2Oc2cncc(Cl)c2)s1 [Example 52, 2-(5-Chloro-pyridin-3-yloxy)-N-(5-methyl-thiophen-2-ylmethyl)-nicotinamide] |
| 121 to 123 °C | CC(C)(O)c1ccc(CNC(=O)c2cccnc2Oc2cccc(C#N)c2)c(Cl)c1 [Example 116, N-[2-Chloro-4-(1-hydroxy-1-methyl-ethyl)-benzyl]-2-(3-cyano-phenoxy)-nicotinamide] |
| 197 to 199 °C | C[C@@H](NC(=O)c1cccnc1Oc1cccnc1)c1cccs1 (as salt: HCl) [Example 47, (R)(−)-2-(Pyridin-3-yloxy)-N-(1-thiophen-2-yl-ethyl)-nicotinamide] |
| 118 to 120 °C | O=C(NCc1cc(Cl)cs1)c1cccnc1Oc1cccnc1 [Example 21, N-(4-Chloro-thiophen-2-ylmethyl)-2-(pyridin-3-yloxy)-nicotinamide] |
| 112 to 114 °C | N#Cc1ccc(Oc2ncccc2C(=O)NCc2ccccc2Cl)cc1 [Example 119, N-(2-Chloro-benzyl)-2-(4-cyano-phenoxy)-nicotinamide] |
| 174 to 176 °C | O=C(NCc1ccccc1Cl)c1cccnc1Oc1cccnc1 (as salt: HCl) [Example 31, N-(2-Chloro-benzyl)-2-(pyridin-3-yloxy)-nicotinamide] |
| 135 to 137 °C | N#Cc1cccc(Oc2ncccc2C(=O)NCc2ccccc2Cl)c1 [Example 110, N-(2-Chloro-benzyl)-2-(3-cyano-phenoxy)-nicotinamide] |
| 74 to 76 °C | CC(NC(=O)c1cccnc1Oc1cccnc1)c1ccc(Cl)s1 (centres unmarked) [Example 14, N-[1-(5-Chloro-thiophen-2-yl)-ethyl]-2-(pyridin-3-yloxy)-nicotinamide] |
| 118 to 119 °C | O=C(NCC(O)c1ccccc1)c1cccnc1Oc1cccc(Cl)c1 (centres unmarked) [Example 133, 2-(3-Chloro-phenoxy)-N-(2-hydroxy-2-phenyl-ethyl)-nicotinamide] |
| 84 to 86 °C | O=C(NCc1ccco1)c1cccnc1Oc1cccnc1 [Example 15, N-Furan-2-ylmethyl-2-(pyridin-3-yloxy)-nicotinamide] |
| 137 to 139 °C | O=C(Cc1ccccc1Cl)Nc1cccnc1Oc1cccnc1 [Example 185, 2-(2-Chloro-phenyl)-N-[2-(pyridin-3-yloxy)-pyridin-3-yl]-acetamide] |
| 90 to 92 °C | CC(NC(=O)c1cccnc1Oc1cccnc1)c1cccs1 (centres unmarked) [Example 45, 2-(Pyridin-3-yloxy)-N-(1-thiophen-2yl-ethyl)-nicotinamide] |
| 110 to 112 °C | O=C(NCc1ccc(Cl)s1)c1cccnc1Oc1cccnc1 [Example 16, N-(5-Chloro-thiophen-2-ylmethyl)-2-(pyridin-3-yloxy)-nicotinamide] |
| 61 to 62 °C | CCCCCNC(=O)c1cccnc1Oc1cccnc1 [Example 175, N-Pentyl-2-(pyridin-3-yloxy)-nicotinamide] |

From patent publication US6380218B1, “Nicotinamide derivatives” (Pfizer Inc, priority 1997, dated 2002)
